# Measurements reported in patent US11926621B1, “N′-(2-(5-(4-chlorophenyl)-1,3,4-oxadiazol-2-ylthio)acetoxy)benzo[d][1,3]dioxole-5-carboximidamide as an antimicrobial compound” (KING FAISAL UNIVERSITY, priority 2023, dated 2024).
# Tests used:
# Format in all cases: cell-based
# Staphylococcus aureus = experiment: Agar plate disc-diffusion, antibacterial inhibition zone; conditions: nutrient agar, 37° C., 48 h
# Protocol: (§1) The agar plate disc-diffusion method was applied. Sterilized filter papers (6 mm in diameter) were wetted with 10 μL of a solution of N′-(2-(5-(4-chlorophenyl)-1,3,4-oxadiazol-2-ylthio)acetoxy)benzo[d][1,3]dioxole-5-carboximidamide (3) to be tested, […], and the discs were allowed to air dry. The discs were then placed onto the surface of agar plates (nutrient agar for bacteria and Sabouraud's dextrose agar for fungi) seeded with the test organism. Each plate contained 15 mL of the agar medium, previously seeded with 0.2 mL of the broth culture of each organism pregrown for 18 hours. The plates were incubated at 37° C. for 48 h, and 72 h for fungi. The inhibition zones were measured in mm. Discs impregnated with DMSO were used as a control, and its inhibition zone was subtracted from the tested compound actual inhibition zone.
# (§2) The results of the antimicrobial testing can be observed in Tables 1 and 2, below, using ciprofloxacin as a reference.
# Escherichia coli = experiment: as above; conditions: nutrient agar, 37° C., 48 h
# Protocol: as §1, §2
# Pseudomonas aeruginosa = experiment: as above; conditions: nutrient agar, 37° C., 48 h
# Protocol: as §1, §2
# [1] = system: Chrysosporium keratinophilum; experiment: Agar plate disc-diffusion, antifungal inhibition zone; conditions: Sabouraud's dextrose agar, 72 h
# Protocol: as §1, §2
# Bacillus cereus = experiment: Agar plate disc-diffusion, antibacterial inhibition zone; conditions: nutrient agar, 37° C., 48 h
# Protocol: The agar plate disc-diffusion method was applied. […] The discs were then placed onto the surface of agar plates (nutrient agar for bacteria and Sabouraud's dextrose agar for fungi) seeded with the test organism. Each plate contained 15 mL of the agar medium, previously seeded with 0.2 mL of the broth culture of each organism pregrown for 18 hours. The plates were incubated at 37° C. for 48 h, and 72 h for fungi. The inhibition zones were measured in mm. Discs impregnated with DMSO were used as a control, and its inhibition zone was subtracted from the tested compound actual inhibition zone.
# as §2
# Aspergillus flavus = experiment: Agar plate disc-diffusion, antifungal inhibition zone; conditions: Sabouraud's dextrose agar, 72 h
# Protocol: The agar plate disc-diffusion method was applied. Sterilized filter papers (6 mm in diameter) were wetted with 10 μL of a solution of N′-(2-(5-(4-chlorophenyl)-1,3,4-oxadiazol-2-ylthio)acetoxy)benzo[d][1,3]dioxole-5-carboximidamide (3) to be tested, containing 10 mg/mL in DMSO, and the discs were allowed to air dry. The discs were then placed onto the surface of agar plates (nutrient agar for bacteria and Sabouraud's dextrose agar for fungi) seeded with the test organism. Each plate contained 15 mL of the agar medium, previously seeded with 0.2 mL of the broth culture of each organism pregrown for 18 hours. The plates were incubated at 37° C. for 48 h, and 72 h for fungi. The inhibition zones were measured in mm. Discs impregnated with DMSO were used as a control, and its inhibition zone was subtracted from the tested compound actual inhibition zone.
# as §2
# [2] = A = concentration of comp. = 10,000 μL
# [3] = B = concentration of comp. = 30.000 μL
# [4] = C = concentration of comp. = 50,000 μL
smiles,measurement,setting,value
"N/C(=N\OC(=O)CSc1nnc(-c2ccc(Cl)cc2)o1)c1ccc2c(c1)OCO2 [Compound 3, N′-(2-(5-(4-chlorophenyl)-1,3,4-oxadiazol-2-ylthio)acetoxy)benzo[d][1,3]dioxole-5-carboximidamide]","inhibition zone, Staphylococcus aureus, A",Staphylococcus aureus; [2],25 mm
same,"inhibition zone, Staphylococcus aureus, B",Staphylococcus aureus; [3],31 mm
same,"inhibition zone, Staphylococcus aureus, C",Staphylococcus aureus; [4],40 mm
same,"inhibition zone, Escherichia coli, A",Escherichia coli; [2],25 mm
same,"inhibition zone, Escherichia coli, B",Escherichia coli; [3],30 mm
same,"inhibition zone, Escherichia coli, C",Escherichia coli; [4],43 mm
same,"inhibition zone, Pseudomonas aeruginosa, A",Pseudomonas aeruginosa; [2],22 mm
same,"inhibition zone, Pseudomonas aeruginosa, B",Pseudomonas aeruginosa; [3],25 mm
same,"inhibition zone, Pseudomonas aeruginosa, C",Pseudomonas aeruginosa; [4],32 mm
same,"inhibition zone, Chrysosporium keratinophilum, A",[1]; [2],24 mm
same,"inhibition zone, Chrysosporium keratinophilum, B",[1]; [3],29 mm
same,"inhibition zone, Chrysosporium keratinophilum, C",[1]; [4],45 mm
same,"inhibition zone, Bacillus Cereus, A",Bacillus cereus; [2],23 mm
same,"inhibition zone, Bacillus Cereus, B",Bacillus cereus; [3],28 mm
same,"inhibition zone, Bacillus Cereus, C",Bacillus cereus; [4],37 mm
same,"inhibition zone, Aspergillus flavus, A",Aspergillus flavus; [2],25 mm
same,"inhibition zone, Aspergillus flavus, B",Aspergillus flavus; [3],28 mm
same,"inhibition zone, Aspergillus flavus, C",Aspergillus flavus; [4],38 mm
